We go through 19 compounds from ChEMBL document CHEMBL1149511, “Tri-substituted triazoles as potent non-nucleoside inhibitors of the HIV-1 reverse transcriptase” (Bioorg Med Chem Lett, 2006).

Holding throughout (assay type): functional, cell-based
For assay [1], the system named is HeLa. In words: Antiviral activity against wild type HIV1 in HeLa-JC53 cells. Particulars: Homo sapiens.
Assay [2] relates to HeLa. In words: Antiviral activity against HIV1 Y188L mutant in HeLa-JC53 cells.
For assay [3], the system named is HeLa. In words: Antiviral activity against HIV1 K103N-Y181C mutant in HeLa-JC53 cells.
Assay [4] deals with HeLa. As to the kind of experiment: Cytotoxicity against human HeLa-JC53 cells.

As for `Cc1ccc(NC(=O)CSc2nnc(C)n2-c2ccc(C)c3ccccc23)c(Cl)c1`, the EC50 in the assay on HeLa [1] is 1 nM; in the assay on HeLa [2] it was 100 nM; with HeLa [3], 16 nM.
Regarding `Cc1ccc(-n2c(C)nnc2SCC(=O)Nc2ccccc2Br)c2ccccc12`, the EC50 is 0.6 nM in the assay with HeLa [1], 69 nM in the assay with HeLa [2] and 14 nM with HeLa [3].
Turning to `Cc1ccc(NC(=O)CSc2nnc(C)n2-c2c(C)ccc3ccccc23)c(Cl)c1`, the results for the EC50 in the assay on HeLa [1], in the assay with HeLa [2] and in the assay with HeLa [3] were 1 nM, 200 nM and 60 nM, respectively.
In the case of `CCc1ccc(-n2c(C)nnc2SCC(=O)Nc2ccc(C)cc2Cl)c2ccccc12`, the EC50 turned out to be 1 nM in the assay with HeLa [1], 110 nM in the assay with HeLa [2] and 32 nM in the assay on HeLa [3].
Regarding `Cc1cc(-n2c(C)nnc2SCC(=O)Nc2ccccc2Br)c2ccccc2c1C`, the values for the EC50 in the assay with HeLa [1], in the assay on HeLa [2] and in the assay on HeLa [3] were 0.5 nM, 97 nM and 31 nM, respectively.
For `O=C1Nc2ccc(Cl)cc2[C@@](C#CC2CC2)(C(F)(F)F)O1` [EFAVIRENZ], in that order: 0.4 nM, 73 nM and 11 nM.
Regarding `Cc1ccc2c(C)cc(C)c(-n3c(SCC(=O)Nc4ccc(S(N)(=O)=O)cc4Cl)nnc3C(F)(F)F)c2n1`, the EC50 with HeLa [1] turned out to be 1 nM; in the assay with HeLa [2] it was 4 nM. Moreover, the Activity entry in the assay with HeLa [4] is “Not toxic”.
For `Cc1ccc(NC(=O)CSc2nnc(C)n2-c2ccc(Cl)c3ccccc23)c(Cl)c1`, the EC50 in the assay with HeLa [1] is 1 nM; with HeLa [2] it was 320 nM; in the assay with HeLa [3] it was 190 nM.
As for `Cc1cc(C)c2ccccc2c1-n1c(C)nnc1SCC(=O)Nc1ccc(S(N)(=O)=O)cc1Cl`, the EC50 in the assay with HeLa [1] worked out at 0.1 nM; in the assay on HeLa [2], 4 nM. In addition, in the assay on HeLa [4], the Activity result was “Not toxic”.
`Cc1ccc(NC(=O)CSc2nnc(C)n2-c2ccccc2)c(Br)c1`: the EC50 in the assay on HeLa [1] was 100 nM; with HeLa [2] it was more than 10000 nM; in the assay on HeLa [3] it was 1300 nM.
On to `Cc1ccc2ccccc2c1-n1c(C)nnc1SCC(=O)Nc1ccccc1Br`, for which the EC50 amounted to 1 nM in the assay with HeLa [1], 210 nM in the assay on HeLa [2] and 65 nM in the assay with HeLa [3].
The matching figures for `Cc1cc(C)c2ccccc2c1-n1c(C)nnc1SCC(=O)Nc1ccccc1Br`: 1 nM, 89 nM and 70 nM.
Take `CN(C)c1ccc(-n2c(SCC(=O)Nc3ccc(S(N)(=O)=O)cc3Cl)nnc2C(F)(F)F)c2ccccc12`: the half-maximal effective concentration (EC50) with HeLa [1] was 2 nM; with HeLa [2] it was 7 nM. Further, the Activity entry with HeLa [4] was “Not toxic”.
Consider `CCc1ccc(-n2c(C)nnc2SCC(=O)Nc2ccccc2Br)c2ccccc12`, for which the EC50 amounted to 0.5 nM in the assay with HeLa [1], 58 nM with HeLa [2] and 22 nM in the assay on HeLa [3].
For `Cc1ccc(NC(=O)CSc2nnc(C)n2-c2cccc3ccccc23)c(Cl)c1`, in that order: 4 nM, 590 nM and 54 nM.
Consider `COc1ccc(-n2c(C)nnc2SCC(=O)Nc2ccccc2Br)c2ccccc12`, for which the EC50 in the assay with HeLa [1] was 0.7 nM; in the assay with HeLa [2] it was 460 nM; with HeLa [3] it was 93 nM.
As to `Cc1ccc2c(C)ccc(-n3c(C)nnc3SCC(=O)Nc3ccc(S(N)(=O)=O)cc3Cl)c2c1`, the EC50 turned out to be 0.6 nM in the assay with HeLa [1] and 6 nM with HeLa [2]. The Activity result in the assay with HeLa [4] was “Not toxic”.
In the case of `Cc1nnc(SCC(=O)Nc2ccccc2Br)n1-c1ccc(Cl)c2ccccc12`, the figures for the EC50 with HeLa [1], in the assay with HeLa [2] and in the assay on HeLa [3] were 0.8 nM, 200 nM and 130 nM, respectively.
For the compound `COC(=O)c1ccc(NC(=O)CSc2nnc(C)n2-c2ccc(C)cc2)c(Cl)c1`, the values for the EC50 in the assay on HeLa [1] and in the assay on HeLa [3] were 0.4 nM and 120 nM, respectively.
